Assays:
HABS = astrocyte control; experiment: growth inhibition relative to DMSO (0) and positive control (1) (fraction); higher = more growth inhibition
Method: (§1)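 Paxalisib (GDC0084) x mirdametinib (PD0325901) dose matrix on pHGG cell lines and astrocyte controls, 7 days, adherent 384-well. CellTiter-Glo RLU was normalised (no log2) to fractional activity between DMSO (0) and the positive control (1). Each combination was tested in two plate orientations.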

DIPGX29 = H3.3 K27M diffuse intrinsic pontine glioma line; experiment: as above
Method: as §1

O=C(NOC[C@H](O)CO)c1ccc(F)c(F)c1Nc1ccc(I)cc1F + CC1(C)OCCn2c1nc1c(N3CCOCC3)nc(-c3cnc(N)nc3)nc12 [GDC0084]
growth inhibition
Details	compound 1 concentration 0.009766 µM	compound 1 concentration 0.01953 µM	compound 1 concentration 0.03906 µM	compound 1 concentration 0.07812 µM	compound 1 concentration 0.15625 µM	compound 1 concentration 0.3125 µM	compound 1 concentration 0.625 µM	compound 1 concentration 1.25 µM	compound 1 concentration 5 µM	compound 1 concentration 20 µM
DIPGX29, compound 2 concentration 0.03906 µM	0.638	0.646	0.648	0.701	0.69	0.738	0.748	0.755	0.895	0.958
DIPGX29, compound 2 concentration 0.07812 µM	0.15	0.207	0.157	0.241	0.208	0.306	0.424	0.498	0.796	0.919
DIPGX29, compound 2 concentration 0.15625 µM	0.213	0.194	0.204	0.242	0.215	0.307	0.451	0.518	0.813	0.909
DIPGX29, compound 2 concentration 0.3125 µM	0.306	0.272	0.343	0.357	0.359	0.415	0.506	0.652	0.859	0.947
DIPGX29, compound 2 concentration 0.625 µM	0.411	0.38	0.431	0.462	0.487	0.495	0.632	0.697	0.917	0.981
DIPGX29, compound 2 concentration 1.25 µM	0.531	0.526	0.609	0.603	0.627	0.625	0.79	0.803	0.952	0.985
DIPGX29, compound 2 concentration 5 µM	0.911	0.936	0.919	0.945	0.966	0.973	0.966	0.993	0.999	1
DIPGX29, compound 2 concentration 20 µM	0.933	0.947	0.948	0.968	0.964	0.984	0.989	0.996	1	1
HABS, compound 2 concentration 0.03906 µM	-0.277	-0.277	-0.363	-0.35	-0.36	-0.157	0.0702	0.206	0.655	0.785
HABS, compound 2 concentration 0.07812 µM	-0.0837	-0.115	-0.185	-0.276	-0.182	-0.0585	0.174	0.282	0.686	0.84
HABS, compound 2 concentration 0.15625 µM	0.00867	-0.00819	-0.125	-0.152	-0.102	0.0679	0.212	0.368	0.765	0.893
HABS, compound 2 concentration 0.3125 µM	0.0584	0.00491	-0.0298	-0.035	-0.004	0.119	0.251	0.39	0.784	0.918
HABS, compound 2 concentration 0.625 µM	0.158	0.129	0.116	0.0817	0.117	0.224	0.337	0.487	0.849	0.948
HABS, compound 2 concentration 1.25 µM	0.352	0.341	0.305	0.259	0.336	0.387	0.482	0.573	0.912	0.98
HABS, compound 2 concentration 5 µM	0.731	0.725	0.702	0.703	0.706	0.689	0.739	0.792	0.974	0.997
HABS, compound 2 concentration 20 µM	0.963	0.956	0.951	0.939	0.938	0.927	0.938	0.957	0.998	1

CC1(C)OCCn2c1nc1c(N3CCOCC3)nc(-c3cnc(N)nc3)nc12 [GDC0084] + O=C(NOC[C@H](O)CO)c1ccc(F)c(F)c1Nc1ccc(I)cc1F [PD0325901]
growth inhibition
Details	compound 1 concentration 0.009766 µM	compound 1 concentration 0.01953 µM	compound 1 concentration 0.03906 µM	compound 1 concentration 0.07812 µM	compound 1 concentration 0.15625 µM	compound 1 concentration 0.3125 µM	compound 1 concentration 0.625 µM	compound 1 concentration 1.25 µM	compound 1 concentration 5 µM	compound 1 concentration 20 µM
DIPGX29, compound 2 concentration 0.03906 µM	0.0494	0.0257	0.0988	0.197	0.244	0.304	0.508	0.598	0.891	0.96
DIPGX29, compound 2 concentration 0.07812 µM	0.246	0.221	0.24	0.295	0.368	0.426	0.565	0.653	0.915	0.964
DIPGX29, compound 2 concentration 0.15625 µM	0.138	0.16	0.18	0.286	0.308	0.402	0.515	0.704	0.92	0.97
DIPGX29, compound 2 concentration 0.3125 µM	0.198	0.252	0.293	0.316	0.389	0.507	0.616	0.696	0.949	0.981
DIPGX29, compound 2 concentration 0.625 µM	0.331	0.369	0.463	0.439	0.481	0.54	0.619	0.781	0.967	0.993
DIPGX29, compound 2 concentration 1.25 µM	0.511	0.539	0.543	0.583	0.62	0.67	0.806	0.869	0.983	0.999
DIPGX29, compound 2 concentration 5 µM	0.801	0.807	0.824	0.837	0.855	0.88	0.924	0.956	0.997	0.997
DIPGX29, compound 2 concentration 20 µM	0.903	0.914	0.9	0.927	0.923	0.969	0.97	0.989	1	1
HABS, compound 2 concentration 0.03906 µM	-0.37	-0.333	-0.284	-0.211	-0.192	-0.0322	0.16	0.363	0.773	0.974
HABS, compound 2 concentration 0.07812 µM	-0.231	-0.228	-0.183	-0.184	-0.0583	0.0322	0.187	0.365	0.734	0.954
HABS, compound 2 concentration 0.15625 µM	-0.225	-0.157	-0.11	-0.0914	0.000284	0.0786	0.237	0.371	0.734	0.943
HABS, compound 2 concentration 0.3125 µM	-0.0761	-0.0499	-0.0388	0.00861	0.0797	0.184	0.292	0.419	0.718	0.923
HABS, compound 2 concentration 0.625 µM	0.163	0.146	0.187	0.252	0.293	0.374	0.474	0.574	0.798	0.946
HABS, compound 2 concentration 1.25 µM	0.291	0.301	0.34	0.347	0.406	0.457	0.538	0.624	0.807	0.966
HABS, compound 2 concentration 5 µM	0.677	0.695	0.698	0.722	0.793	0.854	0.895	0.922	0.982	0.999
HABS, compound 2 concentration 20 µM	0.792	0.82	0.846	0.876	0.911	0.94	0.968	0.986	0.999	1

Reference: the supplement of paper PMC8253809
